The structures appear in SMILES notation. pIC50: −log10 of the molar value. Read-outs that look alike come from different tables or passages of the source.

The values that follow come from US8735406B2, “8-oxodihydropurine derivative” (Dainippon Sumitomo Pharma Co., Ltd., priority 2009, dated 2014).

In the test the target is T1, FAAH (Rattus norvegicus, UniProt P97612).
T1 construct: Preparation of Rat Brain Membranes Preparations (FAAH Enzyme Solution); from tissue; host or cells: rat cerebrum (brain membrane preparation)
T1 sequence (P97612 1-579): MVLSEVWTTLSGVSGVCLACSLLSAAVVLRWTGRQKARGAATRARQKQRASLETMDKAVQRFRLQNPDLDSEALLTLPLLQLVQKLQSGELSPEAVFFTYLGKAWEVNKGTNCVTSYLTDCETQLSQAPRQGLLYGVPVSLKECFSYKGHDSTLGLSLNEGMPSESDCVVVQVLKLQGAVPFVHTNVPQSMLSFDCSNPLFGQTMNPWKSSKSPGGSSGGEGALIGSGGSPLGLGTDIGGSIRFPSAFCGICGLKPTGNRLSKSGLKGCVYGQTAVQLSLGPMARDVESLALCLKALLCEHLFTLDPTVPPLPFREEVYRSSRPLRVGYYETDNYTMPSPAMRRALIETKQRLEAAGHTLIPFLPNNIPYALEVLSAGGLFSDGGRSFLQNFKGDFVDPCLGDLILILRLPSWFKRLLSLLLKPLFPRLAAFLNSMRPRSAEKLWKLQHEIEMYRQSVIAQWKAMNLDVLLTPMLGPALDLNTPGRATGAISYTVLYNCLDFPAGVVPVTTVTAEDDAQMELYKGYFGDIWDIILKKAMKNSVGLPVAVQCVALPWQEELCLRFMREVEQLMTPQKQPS
The experiment in a line: Determination of FAAH inhibitory activity in rat (rat brain membrane preparations, [3H]-anandamide hydrolysis). It counts as biochemical. The note with it: for inhibition at 0.1 µM: read-out: FAAH Inhibition, Inhibition Rate at 100 nM; for pIC50: test substance 0.1 nM to 1 μM. How it is done:
Determination of FAAH Inhibitory Activity in Rat
The preparation of rat brain membranes preparations and the determination of FAAH inhibitory activity were carried out according to the Jonsson et al. method [Br. J. Pharmacol., 133, 1263 (2001)].
(1) Preparation of Rat Brain Membranes Preparations (FAAH Enzyme Solution)
The cerebrum was extracted from rats and was freeze-stored at −80° C. To the frozen cerebrum was added 4° C. enzyme homogenization buffer (20 mM HEPES-buffer pH 7.0, 1 mM MgCl2) and the mixture was homogenized using a homogenizer in ice and the homogenates were centrifuged (36,000×g for 20 minutes). After repeating operations of homogenization and centrifugation, the tissue pellets were re-suspended with 4° C. enzyme homogenization buffer. The re-suspensions were incubated at 37° C. for 15 minutes and were centrifuged (36,000×g for 20 minutes), and the resulting tissue membranes were then re-suspended with enzyme solution preparation buffer (50 mM Tris-HCl buffer pH 7.4, 1 mM EDTA, 3 mM MgCl2). The protein concentration in the resulting membrane preparations were determined according to a colorimetry method (BCA Protein Assay: Pierce Inc.) and the preparations were freeze-stored at −80° C. until used for assay.
(2) Screening of Substances for Inhibiting FAAH Activity
To the above membrane preparations (final concentration 100 μg/mL) were added a solution of test substances in DMSO (final concentration in DMSO 1%) and an assay buffer (for final preparation; 22 mM Tris-HCl (pH 7.6), 1.4 mM EDTA, 1.5% BSA, 0.6 mM MgCl2) and the resulting mixtures were preincubated at 37° C. for 10 minutes. Thereto was added a substrate solution (for final preparation; 2 nM [^3H]-Anandamide (American Radiolabeled Chemicals Inc.)+2 μM Anandamide (Sigma-Aldrich Co.)) (final assay volume of 200 μL) and the resulting mixtures were incubated at 37° C. for 10 minutes. Here in control experiment, DMSO was added instead of the solution of test substance in DMSO. Also in blank experiment, DMSO was added instead of the solution of test substance in DMSO and an enzyme solution preparation buffer was also added instead of the membrane preparations. After the incubation, thereto was added a 400 μL ice-cooled solution of chloroform and methanol (1:1 ratio by volume) and the resulting mixtures were stirred. An ethanolamine (ethanolamine-1-[^3H]) as a decomposed product was separated into an upper layer (water/methanol layer) by centrifugation (1,000×g for 10 minutes). The upper layer 200 μL was transferred into 96 well Deepwell Luma Plate-96 (PerkinElmer Inc.) and the radioactivity was measured by microplate scintillation counter (TopCount NXT™: […].). The substances showing a lower measured value compared to those of control were selected as the compound having a FAAH inhibitory activity.
(3) Determination of IC50 Value
The test substances were prepared such that the final concentration of the compounds is within the range of 0.1 nM to 1 μM and were then examined on the effect on FAAH activity according to the above-mentioned protocol.

[1] abbreviates: rat brain membrane preparations, 100 nM test substance.
Setting [2] is: rat brain membrane preparations, read-out: FAAH Inhibition IC50.

In the case of `CCN(CC)C(=O)n1c(=O)n(C)c2nc(-c3cccc(OC)c3)ncc21` [Example 70], the inhibition at 0.1 µM under setting [1] worked out at 41%. Moreover, the pIC50 under setting [2] is under 7.00.

In the case of `COc1cccc(-c2ncc3c(n2)n(C)c(=O)n3C(=O)N(C)Cc2ccc(F)cc2)c1` [Example 71, N-(4-Fluorobenzyl)-2-(3-methoxyphenyl)-N,9-dimethyl-8-oxo-8,9-dihydro-7H-purine-7-carboxamide], under setting [1], the inhibition at 0.1 µM was determined as 103%. Moreover, the pIC50 under setting [2] is 8.05.

As for `COc1cccc(-c2ncc3c(n2)n(C)c(=O)n3C(=O)N(C)Cc2cccc(F)c2)c1` [Example 72, N-(3-Fluorobenzyl)-2-(3-methoxyphenyl)-N,9-dimethyl-8-oxo-8,9-dihydro-7H-purine-7-carboxamide], the inhibition at 0.1 µM under setting [1] came out at 99%. Moreover, under setting [2], the pIC50 was 7.64.

Turning to `COc1cccc(CN(C)C(=O)n2c(=O)n(C)c3nc(-c4cccc(OC)c4)ncc32)c1` [Example 73, N-(3-Methoxybenzyl)-2-(3-methoxyphenyl)-N,9-dimethyl-8-oxo-8,9-dihydro-7H-purine-7-carboxamide], the inhibition at 0.1 µM under setting [1] stood at 89%. Under setting [2], the pIC50 was 7.35.

Take `COc1cccc(-c2ncc3c(n2)n(C)c(=O)n3C(=O)N(C)CCc2ccc(F)cc2)c1` [Example 74, N-[2-(4-Fluorophenyl)ethyl]-2-(3-methoxyphenyl)-N,9-dimethyl-8-oxo-8,9-dihydro-7H-purine-7-carboxamide]: the inhibition at 0.1 µM is 104%. For the same compound, the pIC50 under setting [2] is over 9.00.

With `COc1cccc(-c2ncc3c(n2)n(C)c(=O)n3C(=O)N(C)CCc2cccc(F)c2)c1` [Example 75, N-[2-(3-Fluorophenyl)ethyl]-2-(3-methoxyphenyl)-N,9-dimethyl-8-oxo-8,9-dihydro-7H-purine-7-carboxamide], the inhibition at 0.1 µM is 103%. Besides, the pIC50 under setting [2] is over 9.00.

With `COc1cccc(-c2ncc3c(n2)n(C)c(=O)n3C(=O)N(C)CCc2cccc(Cl)c2)c1` [Example 76, N-[2-(3-Chlorophenyl)ethyl]-2-(3-methoxyphenyl)-N,9-dimethyl-8-oxo-8,9-dihydro-7H-purine-7-carboxamide], the inhibition at 0.1 µM was determined as 102%. Also, the pIC50 (FAAH Inhibition IC50, rat brain membrane preparations) is 8.52.

Take `COc1cccc(-c2ncc3c(n2)n(C)c(=O)n3C(=O)N(C)CCOc2ccc(Cl)cc2)c1` [Example 77, N-[2-(4-Chlorophenoxy)ethyl]-2-(3-methoxyphenyl)-N,9-dimethyl-8-oxo-8,9-dihydro-7H-purine-7-carboxamide]: the inhibition at 0.1 µM under setting [1] worked out at 116%. Also, under setting [2], the pIC50 was 8.52.

`COc1cccc(-c2ncc3c(n2)n(C)c(=O)n3C(=O)N(C)Cc2ccc(Cl)cc2)c1` [Example 78, N-(4-Chlorobenzyl)-2-(3-methoxyphenyl)-N,9-dimethyl-8-oxo-8,9-dihydro-7H-purine-7-carboxamide]: the inhibition at 0.1 µM under setting [1] was found to be 108%. Under setting [2], the pIC50 is 8.00.

On to `COc1cccc(-c2ncc3c(n2)n(C)c(=O)n3C(=O)N(C)Cc2cccc(Cl)c2)c1` [Example 79, N-(3-Chlorobenzyl)-2-(3-methoxyphenyl)-N,9-dimethyl-8-oxo-8,9-dihydro-7H-purine-7-carboxamide], for which the inhibition at 0.1 µM under setting [1] worked out at 87%. For the same compound, the pIC50 under setting [2] is 7.29.

Consider `COc1ccc(CN(C)C(=O)n2c(=O)n(C)c3nc(-c4cccc(OC)c4)ncc32)cc1` [Example 80, N-(4-Methoxybenzyl)-2-(3-methoxyphenyl)-N,9-dimethyl-8-oxo-8,9-dihydro-7H-purine-7-carboxamide], for which the inhibition at 0.1 µM under setting [1] is 92%. The pIC50 under setting [2] is 7.36.

As to `COc1cccc(-c2ncc3c(n2)n(C)c(=O)n3C(=O)N(C)Cc2ccc(C(F)(F)F)cc2)c1` [Example 81, 2-(3-Methoxyphenyl)-N,9-dimethyl-8-oxo-N-[4-(trifluoromethyl)benzyl]-8,9-dihydro-7H-purine-7-carboxamide], under setting [1], the inhibition at 0.1 µM was determined as 94%. The pIC50 under setting [2] is 7.96.

As for `COc1cccc(-c2ncc3c(n2)n(C)c(=O)n3C(=O)N(C)Cc2cccc(C(F)(F)F)c2)c1` [Example 82, 2-(3-Methoxyphenyl)-N,9-dimethyl-8-oxo-N-[3-(trifluoromethyl)benzyl]-8,9-dihydro-7H-purine-7-carboxamide], the inhibition at 0.1 µM under setting [1] amounted to 90%. Moreover, the pIC50 under setting [2] is 7.44.

`COc1cccc(-c2ncc3c(n2)n(C)c(=O)n3C(=O)N(C)Cc2ccc(OC(F)(F)F)cc2)c1` [Example 83, 2-(3-Methoxyphenyl)-N,9-dimethyl-8-oxo-N-[4-(trifluoromethoxy)benzyl]-8,9-dihydro-7H-purine-7-carboxamide]: under setting [1], the inhibition at 0.1 µM was 93%. For the same compound, the pIC50 under setting [2] was 7.60.

Turning to `COc1cccc(-c2ncc3c(n2)n(C)c(=O)n3C(=O)N2CCN(Cc3ccc(F)cc3)CC2)c1` [Example 84, 7-{[4-(4-Fluorobenzyl)piperazin-1-yl]carbonyl}-2-(3-methoxyphenyl)-9-methyl-7,9-dihydro-8H-purine-8-one], the inhibition at 0.1 µM was found to be 98%. Besides, the pIC50 under setting [2] was 7.89.

On to `COc1cccc(-c2ncc3c(n2)n(C)c(=O)n3C(=O)N2CCN(Cc3cccc(F)c3)CC2)c1` [Example 85, 7-{[4-(3-Fluorobenzyl)piperazin-1-yl]carbonyl}-2-(3-methoxyphenyl)-9-methyl-7,9-dihydro-8H-purine-8-one], for which the inhibition at 0.1 µM is 93%. In addition, the pIC50 under setting [2] is 7.51.

In the case of `COc1cccc(-c2ncc3c(n2)n(C)c(=O)n3C(=O)N2CCN(Cc3ccc(Cl)cc3)CC2)c1` [Example 86, 7-{[4-(4-Chlorobenzyl)piperazin-1-yl]carbonyl}-2-(3-methoxyphenyl)-9-methyl-7,9-dihydro-8H-purine-8-one], the inhibition at 0.1 µM stood at 96%. Also, under setting [2], the pIC50 was 7.66.

Regarding `COc1cccc(-c2ncc3c(n2)n(C)c(=O)n3C(=O)N2CCN(Cc3cccc(Cl)c3)CC2)c1` [Example 87, 7-{[4-(3-Chlorobenzyl)piperazin-1-yl]carbonyl}-2-(3-methoxyphenyl)-9-methyl-7,9-dihydro-8H-purine-8-one], the inhibition at 0.1 µM was 99%. Further, the pIC50 under setting [2] is 8.00.

As to `COc1cccc(-c2ncc3c(n2)n(C)c(=O)n3C(=O)N(C)Cc2ccccc2)c1` [Example 88, N-Benzyl-2-(3-methoxyphenyl)-N,9-dimethyl-8-oxo-8,9-dihydro-7H-purine-7-carboxamide], the inhibition at 0.1 µM under setting [1] amounted to 93%. Also, under setting [2], the pIC50 is 7.37.

Take `COc1cccc(-c2ncc3c(n2)n(C)c(=O)n3C(=O)N2CCN(Cc3ccc(C(F)(F)F)cc3)CC2)c1` [Example 89, 2-(3-Methoxyphenyl)-9-methyl-7-({4-[4-(trifluoromethyl)benzyl]piperazin-1-yl}carbonyl)-7,9-dihydro-8H-purine-8-one]: the inhibition at 0.1 µM turned out to be 92%. Further, under setting [2], the pIC50 is 7.36.

Take `COc1cccc(-c2ncc3c(n2)n(C)c(=O)n3C(=O)N(C)CCOc2cccc(Cl)c2)c1` [Example 90, N-[2-(3-Chlorophenoxy)ethyl]-2-(3-methoxyphenyl)-N,9-dimethyl-8-oxo-8,9-dihydro-7H-purine-7-carboxamide]: under setting [1], the inhibition at 0.1 µM is 105%. Moreover, the pIC50 under setting [2] was 8.70.
